Data taken from ChEMBL document CHEMBL5096223, “Design, synthesis, and biological evaluation of 2-arylamino-4-(piperidin-4-yloxy)pyrimidines as potent EGFRT790M/L858R inhibitors to treat non-small cell lung cancer” (Bioorg Med Chem, 2022).
Calls of active or inactive are those of the source. The calls are words filed in the database; no cut-off is given here.

Key:
NCI-H358 = test: Antiproliferative activity against human NCI-H358 cells harboring KRAS G12C mutant assessed as reduction in cell growth incubated for 72 hrs by MTT assay; assay type: functional, cell-based; details: NCI-H358, 72 h
Homo sapiens = species on record: Homo sapiens; test: Selectivity index, ratio of IC50 for N-terminal GST-tagged human recombinant wild type EGFR (695 to end residues) expressed in baculovirus-infected Sf9 cells to IC50 for N-terminal GST-tagged human recombinant EGFR T790M/L858R mutant (695 to end residues) expressed in baculovirus-infected Sf9 cells; assay type: functional
[1] = Cytotoxicity against human A-431 cells harboring wild type EGFR assessed as reduction in cell viability incubated for 72 hrs by MTT assay; assay type: toxicity, cell-based
NCI-H1975 [2] = test: Antiproliferative activity against human NCI-H1975 cells harboring EGFR T790M/L858R mutant assessed as reduction in cell growth incubated for 72 hrs by MTT assay; assay type: functional, cell-based; details: NCI-H1975, 72 h
[3] = molecular target: Epidermal growth factor receptor (Homo sapiens, UniProt P00533); test: Inhibition of N-terminal GST-tagged human recombinant wild type EGFR (695 to end residues) expressed in baculovirus-infected Sf9 cells using poly (4:1 Glu,Tyr) peptide as substrate incubated for 60 mins in presence of ATP by ADP-Glo kinase assay
[4] = molecular target: Epidermal growth factor receptor (Homo sapiens, UniProt P00533, L858R/T790M); test: Inhibition of N-terminal GST-tagged human recombinant EGFR T790M/L858R mutant (695 to end residues) expressed in baculovirus-infected Sf9 cells using poly (4:1 Glu,Tyr) peptide as substrate incubated for 60 mins in presence of ATP by ADP-Glo kinase assay
SW-620 = test: Antiproliferative activity against human SW620 cells harboring KRAS G12V mutant assessed as reduction in cell growth incubated for 72 hrs by MTT assay; assay type: functional, cell-based; details: SW-620, 72 h
ASPC1 = test: Antiproliferative activity against human ASPC1 cells harboring KRAS G12D mutant assessed as reduction in cell growth incubated for 72 hrs by MTT assay; assay type: functional, cell-based; details: ASPC1, 72 h
[5] = Cytotoxicity against human L02 cells assessed as reduction in cell viability incubated for 72 hrs by MTT assay; assay type: toxicity, cell-based
[6] = Cytotoxicity against human HBE cells assessed as reduction in cell viability incubated for 72 hrs by MTT assay; assay type: toxicity, cell-based, Epithelial cell
NCI-H1975 [7] = test: Induction of apoptosis in human NCI-H1975 cells assessed as nuclear fragmentation by measuring breakdown of nucleus into small membrane blebs with compacted DNA at 1 to 10 uM incubated for 48 hrs by DAPI staining based fluorescence microscopic analysis; assay type: functional, cell-based; details: dose 1-10 µM
[8] = Selectivity index, ratio of IC50 for cytotoxicity against human HBE cells to IC50 for cytotoxicity against human NCI-H1975 cells harboring EGFR T790M/L858R mutant; assay type: toxicity, cell-based; details: read-out: Ratio IC50
NCI-H1975 [9] = test: Induction of apoptosis in human NCI-H1975 cells assessed as increase in number of nonviable apoptotic cells at 5 to 10 uM incubated for 48 hrs by AO/EB staining based fluorescence microscopic analysis; assay type: functional, cell-based; details: dose 5-10 µM
NCI-H1975 [10] = test: Inhibition of cell migration in human NCI-H1975 cells incubated for 24 to 48 hrs by scratch wound healing assay; assay type: functional, cell-based; details: dose 0.05-0.5 µM, time 24-48 hrs, DDE = dose-dependent effect
NCI-H1975 [11] = test: Inhibition of cell migration in human NCI-H1975 cells at 0.05 to 0.5 uM by scratch wound healing assay; assay type: functional, cell-based; details: dose 0.05-0.5 µM, time 24-48 hrs, TDE = time-dependent effect
NCI-H1975 [12] = test: Induction of morphological changes in human NCI-H1975 cells incubated for 48 hrs by AO/EB staining based fluorescence microscopic analysis; assay type: functional, cell-based; details: dose 1-10 µM, DDE = dose-dependent effect
NCI-H1975 [13] = test: Induction of apoptosis in human NCI-H1975 cells assessed as increase in died cells with few cells containing intact DNA at 10 uM incubated for 48 hrs by DAPI staining based fluorescence microscopic analysis; assay type: functional, cell-based
[14] = Selectivity index, ratio of IC50 for cytotoxicity against human L02 cells to IC50 for cytotoxicity against human NCI-H1975 cells harboring EGFR T790M/L858R mutant; assay type: toxicity, cell-based; details: read-out: Ratio IC50
NCI-H1975 [15] = test: Induction of apoptosis in human NCI-H1975 cells assessed as chromatin shrinkage and accumulation in the nucleus at 1 to 10 uM incubated for 48 hrs by DAPI staining based fluorescence microscopic analysis; assay type: functional, cell-based; details: dose 1-10 µM

Epidermal growth factor receptor (Homo sapiens, UniProt P00533, L858R/T790M), sequence (P00533 25-1210 T790M/L858R limits assumed): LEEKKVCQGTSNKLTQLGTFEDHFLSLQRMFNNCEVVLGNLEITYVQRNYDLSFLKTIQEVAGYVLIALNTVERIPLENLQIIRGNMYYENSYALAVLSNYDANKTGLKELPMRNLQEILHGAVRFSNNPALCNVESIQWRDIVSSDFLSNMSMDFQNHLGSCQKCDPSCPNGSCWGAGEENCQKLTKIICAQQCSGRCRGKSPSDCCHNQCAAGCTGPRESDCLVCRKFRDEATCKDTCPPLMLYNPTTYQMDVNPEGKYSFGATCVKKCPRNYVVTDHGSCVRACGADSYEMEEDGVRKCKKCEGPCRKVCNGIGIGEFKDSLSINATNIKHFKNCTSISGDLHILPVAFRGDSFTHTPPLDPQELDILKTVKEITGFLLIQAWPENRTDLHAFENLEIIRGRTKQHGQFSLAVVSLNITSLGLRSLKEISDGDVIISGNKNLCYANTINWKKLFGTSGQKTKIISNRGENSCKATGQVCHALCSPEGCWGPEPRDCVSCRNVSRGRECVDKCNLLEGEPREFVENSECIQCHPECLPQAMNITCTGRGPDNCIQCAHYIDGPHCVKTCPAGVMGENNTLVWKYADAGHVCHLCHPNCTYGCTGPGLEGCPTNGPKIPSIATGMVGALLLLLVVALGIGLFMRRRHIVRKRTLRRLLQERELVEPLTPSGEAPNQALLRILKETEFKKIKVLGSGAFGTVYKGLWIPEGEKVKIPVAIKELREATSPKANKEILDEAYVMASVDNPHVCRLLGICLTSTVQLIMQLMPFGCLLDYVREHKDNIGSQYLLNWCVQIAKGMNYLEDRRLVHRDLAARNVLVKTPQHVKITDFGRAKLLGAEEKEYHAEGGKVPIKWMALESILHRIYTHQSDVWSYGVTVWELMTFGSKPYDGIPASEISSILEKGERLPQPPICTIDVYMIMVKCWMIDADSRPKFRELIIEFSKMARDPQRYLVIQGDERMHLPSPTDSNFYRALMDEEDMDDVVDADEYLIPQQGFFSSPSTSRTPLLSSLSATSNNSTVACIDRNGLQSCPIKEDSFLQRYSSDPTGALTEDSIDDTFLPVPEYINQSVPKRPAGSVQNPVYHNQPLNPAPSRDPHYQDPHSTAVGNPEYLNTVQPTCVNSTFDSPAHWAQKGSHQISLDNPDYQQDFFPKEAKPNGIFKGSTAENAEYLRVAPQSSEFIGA
Epidermal growth factor receptor (Homo sapiens, UniProt P00533), sequence (P00533 whole entry): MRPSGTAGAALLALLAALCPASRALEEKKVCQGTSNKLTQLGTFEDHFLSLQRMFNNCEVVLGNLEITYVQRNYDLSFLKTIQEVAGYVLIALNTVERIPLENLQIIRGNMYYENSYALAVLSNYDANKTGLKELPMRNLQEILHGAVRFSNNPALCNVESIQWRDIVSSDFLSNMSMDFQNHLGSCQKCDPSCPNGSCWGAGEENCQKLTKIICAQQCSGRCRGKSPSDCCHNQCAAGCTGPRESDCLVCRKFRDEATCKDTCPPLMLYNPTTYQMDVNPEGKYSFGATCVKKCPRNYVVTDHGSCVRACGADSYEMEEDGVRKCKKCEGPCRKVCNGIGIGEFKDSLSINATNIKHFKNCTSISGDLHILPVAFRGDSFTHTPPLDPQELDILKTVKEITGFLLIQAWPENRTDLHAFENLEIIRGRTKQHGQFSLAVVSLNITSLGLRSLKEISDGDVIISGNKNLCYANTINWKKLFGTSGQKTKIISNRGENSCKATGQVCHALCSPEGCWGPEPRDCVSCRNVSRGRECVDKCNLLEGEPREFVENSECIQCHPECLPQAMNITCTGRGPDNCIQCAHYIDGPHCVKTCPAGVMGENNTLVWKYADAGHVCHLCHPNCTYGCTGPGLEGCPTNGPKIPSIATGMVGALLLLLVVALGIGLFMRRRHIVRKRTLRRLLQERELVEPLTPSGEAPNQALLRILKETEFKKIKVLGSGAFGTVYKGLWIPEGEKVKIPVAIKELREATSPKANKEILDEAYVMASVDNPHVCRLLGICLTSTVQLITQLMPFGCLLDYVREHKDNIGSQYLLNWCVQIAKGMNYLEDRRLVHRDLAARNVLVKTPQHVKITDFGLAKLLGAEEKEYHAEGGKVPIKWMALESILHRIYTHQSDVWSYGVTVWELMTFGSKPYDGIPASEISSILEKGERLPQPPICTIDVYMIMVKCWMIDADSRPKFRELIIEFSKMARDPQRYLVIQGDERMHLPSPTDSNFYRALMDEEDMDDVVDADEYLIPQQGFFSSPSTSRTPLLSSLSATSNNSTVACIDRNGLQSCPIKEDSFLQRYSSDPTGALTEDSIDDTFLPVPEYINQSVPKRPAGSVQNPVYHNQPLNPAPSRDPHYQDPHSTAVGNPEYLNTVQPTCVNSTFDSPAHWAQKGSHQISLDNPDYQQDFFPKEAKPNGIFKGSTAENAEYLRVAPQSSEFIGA

SMILES | IC50 (NCI-H358) [µM] | Ratio IC50 (Homo sapiens) | IC50 at 72 h [1] [µM] | IC50 (NCI-H1975 [2]) [µM] | IC50 [3] [µM] | IC50 [4] [µM] | IC50 (SW-620) [µM] | IC50 (ASPC1) [µM] | IC50 at 72 h [5] [µM] | IC50 at 72 h [6] [µM] | Activity (NCI-H1975 [7]) | selectivity ratio [8] | Activity (NCI-H1975 [9]) | inhibition (NCI-H1975 [10]) | inhibition (NCI-H1975 [11]) | Activity (NCI-H1975 [12]) | Activity (NCI-H1975 [13]) | selectivity ratio [14] | Activity (NCI-H1975 [15])
C=CC(=O)N1CCC(Oc2nc(Nc3ccc(N4CCN(C)CC4)cc3OC)nc3[nH]ccc23)CC1 | 9.86 | 2.99 | 2.71 | 4.36 | 0.0368 | 0.0123 | 9.88 | 7.04 | 18 | > 20 |  |  |  |  |  |  |  |  | 
C=CC(=O)N1CCC(Oc2nc(Nc3ccc(N4CCN(C)CC4)cc3)ncc2Cl)CC1 | 3.96 |  | 1.45 | 1.7 |  |  | 4.63 | 5.84 | 8.77 | 15 |  |  |  |  |  |  |  |  | 
C=CC(=O)N1CCC(Oc2nc(Nc3ccc(N4CCOCC4)cc3OC)nc3ccsc23)CC1 | > 20 | 25.5 | 15.2 | 5.87 | 0.246 | 0.00966 | 8.67 | 0.51 | 18.2 | > 20 |  |  |  |  |  |  |  |  | 
C=CC(=O)N1CCC(Oc2nc(Nc3ccc(N4CCOCC4)cc3)nc3ccsc23)CC1 | 16.5 | 30.2 | 3.89 | 5.8 | 0.197 | 0.00653 | 4.82 | 2.77 | 16.2 | 16.7 |  |  |  |  |  |  |  |  | 
CCC(=O)N1CCC(Oc2nc(Nc3ccc(N4CCN(C)CC4)cc3)nc3ccsc23)CC1 |  |  |  | 26.1 | 0.268 | 0.356 |  |  |  |  |  |  |  |  |  |  |  |  | 
C=CC(=O)N1CCC(Oc2nc(Nc3ccn(C)n3)nc3ccsc23)CC1 | 20 | 1.78 | > 20 | 16.7 | 0.224 | 0.126 | > 20 | < 0.2 | 16.7 | > 20 |  |  |  |  |  |  |  |  | 
C=CC(=O)N1CCC(Oc2nc(Nc3ccc(N4CCN(C)CC4)cc3)nc3ccsc23)CC1 | 18.9 | 73.3 | 4.18 | 0.62 | 0.359 | 0.0049 | 7.45 | 5.31 | 8.45 | 9.05 | Active | 13 | Active | Dde | Tde | Dde | Active | 13 | Active
C=CC(=O)N1CCC(Oc2nc(Nc3ccc(N4CCN(C(C)=O)CC4)cc3OC)nc3ccsc23)CC1 | 14.6 | 3 | 3.92 | 3.74 | 0.0607 | 0.0202 | 8.61 | 0.48 | 10.6 | 18.9 |  |  |  |  |  |  |  |  | 
C=CC(=O)N1CCC(Oc2nc(Nc3ccc(N4CCN(C)CC4)c(F)c3)ncc2Cl)CC1 | 1.51 |  | 3.26 | 2.09 |  |  | 1.64 | 3.88 | 5.38 | 8.91 |  |  |  |  |  |  |  |  | 
C=CC(=O)N1CCC(Oc2nc(Nc3ccc(N4CCN(C)CC4)cc3OC)nc3ccsc23)CC1 | 7.4 | 17.4 | 2.07 | 1.67 | 0.247 | 0.0142 | 7.33 | 0.65 | 1.97 | 18.6 |  |  |  |  |  |  |  |  | 
C=CC(=O)N1CCC(Oc2nc(Nc3ccc(CN4CCC(CO)CC4)cc3)ncc2Cl)CC1 | 16 | 14.6 | 1.84 | 1.07 | 0.18 | 0.0123 | 1.99 | 2.18 | 2.12 | 5.86 |  |  |  |  |  |  |  |  | 
C=CC(=O)N1CCC(Oc2nc(Nc3ccc(N4CCN(C(C)=O)CC4)cc3OC)nc3[nH]ccc23)CC1 | 3.56 | 4.23 | 3.51 | 3.78 | 0.133 | 0.0313 | 5.8 | 4.92 | 16.1 | 12.9 |  |  |  |  |  |  |  |  | 
C=CC(=O)N1CCC(Oc2nc(Nc3ccc(N4CCN(C)CC4)cc3)nc3[nH]ccc23)CC1 | 4.22 | 6.35 | 1.65 | 1.72 | 0.0361 | 0.00568 | 2.47 | 1.21 | 6.25 | 7.94 |  |  |  |  |  |  |  |  | 
C=CC(=O)N1CCC(Oc2nc(Nc3cnn(C)c3)nc3ccsc23)CC1 | 17.6 | 1.45 | 4.77 | 2.31 | 0.196 | 0.135 | 6.2 | 0.71 | 8.92 | > 20 |  |  |  |  |  |  |  |  | 
C=CC(=O)Nc1cc(Nc2nccc(-c3cn(C)c4ccccc34)n2)c(OC)cc1N(C)CCN(C)C [OSIMERTINIB] |  |  | 1.32 |  |  |  |  |  |  |  |  |  |  |  |  |  |  |  | 
C=CC(=O)N1CCC(Oc2nc(Nc3ccc(N4CCN(C)CC4)c(F)c3)nc3ccsc23)CC1 | 6.26 |  | 1.38 | 1.89 |  |  | 3.57 | > 20 | 1.4 | 4.05 |  |  |  |  |  |  |  |  | 
C=CC(=O)N1CCC(Oc2nc(Nc3ccc(N4CCN(C)CC4)c(F)c3)nc3[nH]ccc23)CC1 | 3.62 | 8.87 | 1.29 | 0.89 | 0.119 | 0.0134 | 1.6 | 0.4 | 1.89 | 3.02 |  |  |  |  |  |  |  |  | 
C=CC(=O)N1CCC(Oc2nc(Nc3cnn(C)c3)nc3[nH]ccc23)CC1 | 3.07 | 1.9 | 3.99 | 0.93 | 0.387 | 0.204 | 2.36 | 1.15 | 10.2 | > 20 |  |  |  |  |  |  |  |  | 
C=CC(=O)N1CCC(Oc2nc(Nc3ccc(N(C)CCN(C)C)cc3OC)nc3[nH]ccc23)CC1 | 5.62 | 7.7 | 16.7 | 4.14 | 0.0593 | 0.0077 | 7.84 | 5.13 | 19 | > 20 |  |  |  |  |  |  |  |  | 
C=CC(=O)N1CCC(Oc2nc(Nc3ccc(N4CCN(CCO)CC4)cc3)ncc2Cl)CC1 | 4.66 | 2.94 | 2.01 | 1.53 | 0.124 | 0.0421 | 0.3 | 2.74 | 4.47 | 16.1 |  |  |  |  |  |  |  |  | 
